Assay results reported in patent publication US9895331B2, “Prophylactic and/or therapeutic agent for radiation damage” (The University of Tokyo, priority 2012, dated 2018).

Experiments:
Assay type in all cases: in vivo, C57BL/6 mice
[1] = system: mouse suffering from radiation damage; assay: Test for studying the establishment of an assessment model (body weight, blood cell count by flow cytometer; 3.5, 4.0, 4.5 Gy)
Excerpt: (§1) Male 8-week-old C57BL/6 mice were purchased from Japan SLC, Inc. and mice that appeared healthy by visual inspection on the day of arrival were subjected to the test. On the day after arrival, based on the body weight, the mice were divided into 10 groups of four mice per group by random sampling, and each group was kept in one cage. The mice were allowed to feed on the basic feed MF manufactured by Oriental Yeast Co., Ltd. and tap water ad libitum and reared in a rearing room at a room temperature of 23 to 24° C., a humidity of 30 to 40%, and under 12 hours of fluorescent lamp lighting.
The mice were divided into 10 groups, including nine groups of 1) to 9), each receiving a different drug and exposed to a different radiation dose, and an untreated group, as shown below.
Groups 1) to 3); Three non-5-ALA administration groups, each irradiated with 3.5 Gy, 4.0 Gy, or 4.5 Gy
Groups 4) to 6); Three 5-ALA hydrochloride 100 mg/kg body weight administration groups, each irradiated with 3.5 Gy, 4.0 Gy, or 4.5 Gy
Groups 7) to 9); Three 5-ALA hydrochloride 100 mg+SFC 157 mg/kg body weight administration groups, each irradiated with 3.5 Gy, 4.0 Gy, or 4.5 Gy […]
Setting the day of irradiation at day 0, the body weight was measured two days before initiation of irradiation (day −2), and on day 0, day 3, day 5, and day 7.
The group of cells obtained from the bone marrow, spleen, and thymus were analyzed by a flow cytometer. […]
(§2) The results of analyzing the group of cells obtained from the bone marrow, spleen, and thymus by a flow cytometer are shown in FIG. 4. The number of bone marrow cells was counted as a sum of B cells, T cells, polymorphonuclear leukocytes (neutrophils), monocytes, and Ery I to IV. The number of thymocytes was counted as a sum of the number of CD4SP, CD8SP, DN, and DP. The number of spleen cells was counted as a sum of B cells, T cells, polymorphonuclear leukocytes (neutrophils), monocytes, and Ery I to IV.

[2] = system: mouse suffering from radiation damage; assay: Assessment test for hematopoiesis-promoting effect (body weight, blood cell count by flow cytometer; 4.0 Gy); details: 5-ALA hydrochloride 100 mg/kg
Excerpt: Male 8-week-old C57BL/6 mice were purchased from Japan SLC, Inc. and mice that appeared healthy by visual inspection on the day of arrival were subjected to the test. On the day after arrival, based on the body weight, the mice were divided into three groups of eight mice per group by random sampling, and further, one group was divided into four mice per cage. Also, as an untreated group, one group of four mice was kept in one cage. The mice were allowed to feed on the basic feed MF manufactured by Oriental Yeast Co., Ltd. and tap water ad libitum and reared in a rearing room at a room temperature of 23 to 24° C., a humidity of 30 to 40%, and under 12 hours of fluorescent lamp lighting.
The mice were divided into four groups, including three groups a) to c), each receiving a different drug, and an untreated group, as shown below.
Group a); Non-5-ALA administration group
Group b); 5-ALA hydrochloride 100 mg/kg body weight administration group
Group c); 5-ALA hydrochloride 100 mg+SFC 157 mg/kg body weight administration group
Using Pantac HF350 (200 KV, 20 mA Filter: Cu 0.1 mm+Al 0.5 mm), the mice were collectively irradiated with a radiation dose of 4.0 Gy on day 0.
From two days before initiation of irradiation (day −2) to day 6, water was forcedly administered to the aforementioned group a), an aqueous solution of 5-ALA hydrochloride was forcedly administered to the aforementioned group b), and an aqueous solution of 5-ALA hydrochloride and SFC was forcedly administered to the aforementioned group c) every day in the stomach through a feeding tube.
Setting the day of irradiation at day 0, the body weight was measured two days before initiation of irradiation (day −2), and on day 0, day 3, and day 6.
The group of cells obtained from the bone marrow, spleen, and thymus were analyzed by a flow cytometer. As an index for identifying each cell, the markers shown in the above [Table 2] were each used.
as §2, with “6.” for “4.”

[3] = system: mouse suffering from radiation damage; assay: Radiation damage-alleviating effect of 5-ALA in irradiated mice (survival rate, body weight, appearance); details: for body weight vs non-ALA administration group / body weight, p vs non-ALA administration group: eleven days after irradiation; for body weight vs non-ALA administration group / body weight, p vs non-ALA administration group / changes in appearance: total 8 Gy
Excerpt: as §1, with “three” for “10”, “10” for “four”, “further, one” for “each”, “divided into three, three, and four mice per” for “kept in one”
The mice were divided into three groups of [1] to [3], each receiving a different drug, as shown below. Group; Non-5-ALA administration group (10 mice) Group; 5-ALA hydrochloride 10 mg/kg body weight administration group (10 mice) Group; 5-ALA hydrochloride 100 mg/kg body weight administration group (10 mice)
Using Pantac HF350 (200 KV, 20 mA Filter: Cu 0.1 mm+Al 0.5 mm), the mice were irradiated with 4 Gy of radiation twice at a 3-hour interval (a total of 8 Gy).
After initiation of irradiation, water was forcedly administered to the aforementioned group, and an aqueous solution of 5-ALA hydrochloride was forcedly administered to the aforementioned groups and [3] every day in the stomach through a feeding tube.
Setting the day of irradiation at day 0, survival up to day 21 was checked. A mouse that survived for 21 days was judged as alive. […] Also, when the death was confirmed in the morning hours, the death was judged to have occurred on the previous day.
At the time of confirmation of survival in (5) above, body weight was simultaneously measured.
During the measurement in (5) above, it was examined whether there was any change in appearance between the administration group and non-administration group.

NCC(=O)CCC(=O)O [ALA, 5-aminolevulinic acid]
other items of blood cell count (bone marrow, thymus, spleen; other doses and groups) ([1]; 3.5 to 4.5 Gy, vs H2O control group): no significant difference
cell count in each organ (bone marrow, spleen, thymus) ([1]; 4.0 Gy, 5-ALA hydrochloride 100 mg/kg): stable improvement tendency
spleen cell count ([1]; 4.0 Gy, 5-ALA hydrochloride 100 mg/kg, day -2 to day 6, vs H2O control group): significant improvement
number of B cells among the bone marrow cells ([2]; bone marrow): tendency of improvement
number of bone marrow TER119+ erythroid progenitor cells ([2]; bone marrow): tendency of improvement
number of monocytes among the bone marrow cells ([2]; bone marrow): tendency of improvement
number of B cells among the spleen cells ([2]; spleen): statistically significant improvement
number of CD11b+ cells among the spleen cells ([2]; spleen): tendency of improvement
number of polymorphonuclear leukocytes among the spleen cells ([2]; spleen): tendency of improvement
number of the erythroid progenitor cell Ery IV among the spleen cells ([2]; spleen): improved with statistical significance
spleen cell count ([2]; without or with SFC 157 mg/kg, day -2 to day 6, vs H2O control group): significant improvement
number of T cells among the spleen cells ([2]; without or with SFC 157 mg/kg, spleen): tendency of improvement
survival rate, p (Logrank method) vs non-ALA administration group ([3]; 10 mg/kg, 4 Gy twice (total 8 Gy), up to day 21): 0.161
body weight vs non-ALA administration group ([3]; 10 mg/kg): significant difference
body weight, p vs non-ALA administration group ([3]; 10 mg/kg): 0.03556
changes in appearance ([3]; 10 mg/kg, vs non-ALA group): milder piloerection
survival rate ([3]; 100 mg/kg daily intragastric after irradiation, 4 Gy twice (total 8 Gy), up to day 21, vs non-ALA group): significantly improved
survival rate, p (Logrank method) vs non-ALA administration group ([3]; 100 mg/kg, 4 Gy twice (total 8 Gy), up to day 21): 0.0289
body weight vs non-ALA administration group ([3]; 100 mg/kg): significant difference
body weight, p vs non-ALA administration group ([3]; 100 mg/kg): 0.03456
changes in appearance ([3]; 100 mg/kg, vs non-ALA group): milder piloerection
